Data published in patent publication US9796711B2, “Substituted pyrazolo[3,4-b]pyridin-6-carboxylic acids and method of use” (AbbVie S.àr.l., priority 2015, dated 2017).

Legend:
ΔF508-CFTR [1] = biological target: T1, ΔF508-CFTR (Homo sapiens, UniProt P13569, DEL508-508); test: CFTR cell surface levels using HRP-tagged ΔF508-CFTR expressing CFBE cells, in the presence of a co-corrector; format: cell-based; conditions: HRP-tagged ΔF508-CFTR expressing CFBE cells, in the presence of 3 μM co-corrector; for EC50: read-out: EC50
T1 construct: host or cells: CFBE41o-, doxycycline-inducible
How it was run: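 Cells were seeded with 0.5 μg/mL doxycycline and held 68 h at 37 °C. Test compounds plus 3 μM co-corrector (final 0.1% DMSO) were then added for 20 h at 33 °C. Washed cells received HRP substrate, and luminescence was normalized between DMSO and 3 μM co-corrector controls.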

ΔF508-CFTR [2] = biological target: T1, ΔF508-CFTR; test: CFTR cell surface levels using HRP-tagged ΔF508-CFTR expressing CFBE cells, intrinsic corrector capacity; format: cell-based; conditions: HRP-tagged ΔF508-CFTR expressing CFBE cells, intrinsic corrector capacity (no co-corrector), 33° C., 20 hours; for EC50: read-out: EC50
How it was run: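 Here the cells express ΔF508-CFTR with horseradish peroxidase inserted in extracellular loop 4, so only rescued channel at the surface gives luminescent signal. Compounds act on their own, 20 h at the reduced temperature of 33 °C; values are percent activity relative to DMSO and a 3 μM corrector.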

T1 sequence (P13569 with tags, fused parts or gaps DEL508-508): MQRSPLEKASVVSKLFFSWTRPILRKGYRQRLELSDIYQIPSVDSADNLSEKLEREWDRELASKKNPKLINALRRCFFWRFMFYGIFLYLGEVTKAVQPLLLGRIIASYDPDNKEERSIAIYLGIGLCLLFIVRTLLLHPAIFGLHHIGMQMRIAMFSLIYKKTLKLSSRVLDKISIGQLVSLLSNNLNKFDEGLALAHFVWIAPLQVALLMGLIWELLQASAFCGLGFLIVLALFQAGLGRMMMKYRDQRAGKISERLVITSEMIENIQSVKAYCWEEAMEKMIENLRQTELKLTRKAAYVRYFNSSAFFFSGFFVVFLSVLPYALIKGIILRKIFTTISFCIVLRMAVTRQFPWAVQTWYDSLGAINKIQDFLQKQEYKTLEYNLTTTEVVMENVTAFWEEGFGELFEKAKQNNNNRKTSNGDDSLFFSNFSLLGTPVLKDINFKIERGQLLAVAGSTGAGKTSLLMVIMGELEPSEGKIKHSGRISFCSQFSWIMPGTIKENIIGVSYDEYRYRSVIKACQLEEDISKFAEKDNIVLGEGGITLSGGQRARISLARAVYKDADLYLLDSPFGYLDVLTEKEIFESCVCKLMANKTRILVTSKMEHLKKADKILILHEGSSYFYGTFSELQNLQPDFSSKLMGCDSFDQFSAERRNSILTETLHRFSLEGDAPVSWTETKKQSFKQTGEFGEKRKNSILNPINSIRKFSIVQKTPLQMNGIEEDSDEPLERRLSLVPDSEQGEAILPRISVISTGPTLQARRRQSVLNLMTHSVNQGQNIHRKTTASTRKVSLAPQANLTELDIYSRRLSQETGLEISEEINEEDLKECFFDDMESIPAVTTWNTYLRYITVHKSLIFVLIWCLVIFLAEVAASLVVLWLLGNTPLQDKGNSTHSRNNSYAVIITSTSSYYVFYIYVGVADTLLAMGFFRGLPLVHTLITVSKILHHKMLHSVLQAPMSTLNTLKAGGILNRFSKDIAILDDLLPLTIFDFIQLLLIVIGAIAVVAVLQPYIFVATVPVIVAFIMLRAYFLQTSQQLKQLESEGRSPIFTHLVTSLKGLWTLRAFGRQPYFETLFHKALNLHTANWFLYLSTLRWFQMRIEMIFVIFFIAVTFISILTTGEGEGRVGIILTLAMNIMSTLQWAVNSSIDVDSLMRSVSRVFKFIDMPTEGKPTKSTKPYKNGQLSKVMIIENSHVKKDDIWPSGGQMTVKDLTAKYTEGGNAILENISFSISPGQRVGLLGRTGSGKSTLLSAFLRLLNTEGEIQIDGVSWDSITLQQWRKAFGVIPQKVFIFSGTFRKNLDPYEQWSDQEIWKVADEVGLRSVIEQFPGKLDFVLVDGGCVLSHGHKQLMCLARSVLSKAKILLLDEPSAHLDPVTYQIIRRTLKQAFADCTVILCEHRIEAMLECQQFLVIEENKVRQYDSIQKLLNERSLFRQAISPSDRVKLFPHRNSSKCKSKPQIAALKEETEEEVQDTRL

SMILES | % Activation (ΔF508-CFTR [1]) | EC50 (ΔF508-CFTR [1]) | % Activation (ΔF508-CFTR [2]) | EC50 (ΔF508-CFTR [2])
O=C(O)c1cc(N2CCC(N3CC4CC3CO4)CC2)c2c(C3CCC3)nn(-c3ccc(F)cc3)c2n1 (centres unmarked) [compound 852, 3-cyclobutyl-1-(4-fluorophenyl)-4-[4-(2-oxa-5-azabicyclo[2.2.1]heptan-5-yl)piperidin-1-yl]-1H-pyrazolo[3,4-b]pyridine-6-carboxylic acid] | 391.4% | 3330 nM | 120.6% | 1710 nM
COCC1CN(C2CCN(c3cc(C(=O)O)nc4c3c(C3CCC3)nn4-c3ccc(F)cc3)CC2)CCO1 (centres unmarked) [compound 853, 3-cyclobutyl-1-(4-fluorophenyl)-4-{4-[2-(methoxymethyl)morpholin-4-yl]piperidin-1-yl}-1H-pyrazolo[3,4-b]pyridine-6-carboxylic acid] | 509.5% | 177 nM | 290.9% | 261 nM
CN(C1CCOCC1)C1CCN(c2cc(C(=O)O)nc3c2c(C2CCC2)nn3-c2ccc(F)cc2)CC1 [compound 854, 3-cyclobutyl-1-(4-fluorophenyl)-4-{4-[methyl(oxan-4-yl)amino]piperidin-1-yl}-1H-pyrazolo[3,4-b]pyridine-6-carboxylic acid] | 380.7% | 3330 nM | 131.1% | 2080 nM
CC(C)Oc1cc(-n2nc(C3CCC3)c3c(N4CCC(N5CCOCC5)CC4)cc(C(=O)O)nc32)ccn1 [compound 855, 3-cyclobutyl-4-[4-(morpholin-4-yl)piperidin-1-yl]-1-{2-[(propan-2-yl)oxy]pyridin-4-yl}-1H-pyrazolo[3,4-b]pyridine-6-carboxylic acid] | 490.9% | 87.2 nM | 304.2% | 197 nM
O=C(O)c1cc(N2CCC(N3CCOCC3)CC2)c2c(C3CCC3)nn(-c3ccnc(OCc4ccccc4)c3)c2n1 [compound 856, 1-[2-(benzyloxy)pyridin-4-yl]-3-cyclobutyl-4-[4-(morpholin-4-yl)piperidin-1-yl]-1H-pyrazolo[3,4-b]pyridine-6-carboxylic acid] | 416.9% | 88.3 nM | 230.7% | 248 nM
O=C(O)c1cc(CN2CCOCC2)c2c(C3CCC3)nn(-c3ccc(F)cc3)c2n1 [compound 857, 3-cyclobutyl-1-(4-fluorophenyl)-4-[(morpholin-4-yl)methyl]-1H-pyrazolo[3,4-b]pyridine-6-carboxylic acid] | 232.2% | 2440 nM | 60.01% | 3330 nM
CN1CCN(Cc2cc(C(=O)O)nc3c2c(C2CCC2)nn3-c2ccc(F)cc2)CC1 [compound 858, 3-cyclobutyl-1-(4-fluorophenyl)-4-[(4-methylpiperazin-1-yl)methyl]-1H-pyrazolo[3,4-b]pyridine-6-carboxylic acid] | 168.6% | 3180 nM | 29.24% | 
COCC1CCN(Cc2cc(C(=O)O)nc3c2c(C2CCC2)nn3-c2ccc(F)cc2)CC1 [compound 859, 3-cyclobutyl-1-(4-fluorophenyl)-4-{[4-(methoxymethyl)piperidin-1-yl]methyl}-1H-pyrazolo[3,4-b]pyridine-6-carboxylic acid] | 291.4% | 2560 nM | 89.07% | 2230 nM
N#CC1CCN(C2CCN(c3cc(C(=O)O)nc4c3c(C3CCC3)nn4-c3ccc(F)cc3)CC2)CC1 [compound 860, 4-(4-cyano[1,4′-bipiperidin]-1′-yl)-3-cyclobutyl-1-(4-fluorophenyl)-1H-pyrazolo[3,4-b]pyridine-6-carboxylic acid] | 576.25% | 417 nM | 383% | 517 nM
CC(C)Oc1nn(C2CCCCC2)c2nc(C(=O)O)cc(-c3ccc(C(=O)N4CCC(N(C)C)CC4)cc3)c12 [compound 861, 1-cyclohexyl-4-{4-[4-(dimethylamino)piperidine-1-carbonyl]phenyl}-3-[(propan-2-yl)oxy]-1H-pyrazolo[3,4-b]pyridine-6-carboxylic acid] | 155.4% |  | 31.08% | 
O=C(O)c1cc(N2CCC3(CC2)CC(N2CCCC2)CO3)c2c(C3CCC3)nn(-c3ccc(F)cc3)c2n1 (centres unmarked) [compound 862, 3-cyclobutyl-1-(4-fluorophenyl)-4-[3-(pyrrolidin-1-yl)-1-oxa-8-azaspiro[4.5]decan-8-yl]-1H-pyrazolo[3,4-b]pyridine-6-carboxylic acid] | 359.6% | 636 nM | 186.5% | 637 nM
CC(C)Oc1nn(C2CCCCC2)c2nc(C(=O)O)cc(-c3ccc(N4CCN(C(C)C)CC4)cc3)c12 [compound 863, 1-cyclohexyl-3-[(propan-2-yl)oxy]-4-{4-[4-(propan-2-yl)piperazin-1-yl]phenyl}-1H-pyrazolo[3,4-b]pyridine-6-carboxylic acid] | 320.9% | 370 nM | 156.35% | 499 nM
Cc1cc(N2CCN(c3cc(C(=O)O)nc4c3c(C3CCC3)nn4C3CCCCC3)CC2)ccn1 [compound 864, 3-cyclobutyl-1-cyclohexyl-4-[4-(2-methylpyridin-4-yl)piperazin-1-yl]-1H-pyrazolo[3,4-b]pyridine-6-carboxylic acid] | 458.6% | 105 nM | 337.7% | 1010 nM
CC(C)N1CCN(c2ccc(-c3cc(C(=O)O)nc4c3c(C3CCC3)nn4C3CCCCC3)cn2)CC1 [compound 865, 3-cyclobutyl-1-cyclohexyl-4-{6-[4-(propan-2-yl)piperazin-1-yl]pyridin-3-yl}-1H-pyrazolo[3,4-b]pyridine-6-carboxylic acid] | 306.8% | 1120 nM | 146.9% | 439 nM
CC(c1ccc(-c2cc(C(=O)O)nc3c2c(C2CCC2)nn3C2CCCCC2)cc1)N1CCOCC1 (centres unmarked) [compound 866, 3-cyclobutyl-1-cyclohexyl-4-{4-[1-(morpholin-4-yl)ethyl]phenyl}-1H-pyrazolo[3,4-b]pyridine-6-carboxylic acid] | 298.3% | 151 nM | 99.71% | 277 nM
CC(C)N1CCN(c2ccc(-c3cc(C(=O)O)nc4c3c(C3CCC3)nn4C3CCCCC3)cc2)CC1 [compound 867, 3-cyclobutyl-1-cyclohexyl-4-{4-[4-(propan-2-yl)piperazin-1-yl]phenyl}-1H-pyrazolo[3,4-b]pyridine-6-carboxylic acid] | 290.65% | 317 nM | 125.2% | 1410 nM
O=C(O)c1cc(-c2ccc(N3CCN(C4CC4)CC3)nc2)c2c(C3CCC3)nn(C3CCCCC3)c2n1 [compound 868, 3-Cyclobutyl-1-cyclohexyl-4-[6-(4-cyclopropylpiperazin-1-yl)-pyridin-3-yl]-1H-pyrazolo[3,4-b]pyridine-6-carboxylic acid] | 337.8% | 176 nM | 140.3% | 239 nM
O=C(O)c1cc(N2CCC(N3CCC(C(F)(F)F)C3)CC2)c2c(C3CCC3)nn(-c3ccc(F)cc3)c2n1 (centres unmarked) [compound 869] | 513.05% | 37.7 nM | 299.1% | 113 nM
N#CC1CCN(C2CCN(c3cc(C(=O)O)nc4c3c(C3CCC3)nn4-c3ccc(F)cc3)CC2)C1 (centres unmarked) [compound 870, 4-[4-(3-cyanopyrrolidin-1-yl)piperidin-1-yl]-3-cyclobutyl-1-(4-fluorophenyl)-1H-pyrazolo[3,4-b]pyridine-6-carboxylic acid] | 611.45% | 171 nM | 304.4% | 1040 nM
N#CC1CCCN(C2CCN(c3cc(C(=O)O)nc4c3c(C3CCC3)nn4-c3ccc(F)cc3)CC2)C1 (centres unmarked) [compound 871, 4-(3-cyano[1,4′-bipiperidin]-1′-yl)-3-cyclobutyl-1-(4-fluorophenyl)-1H-pyrazolo[3,4-b]pyridine-6-carboxylic acid] | 681.7% | 156 nM | 355.1% | 275 nM
O=C(O)c1cc(N2CCC(N3CCCC(F)C3)CC2)c2c(C3CCC3)nn(-c3ccc(F)cc3)c2n1 (centres unmarked) [compound 872, 3-cyclobutyl-4-(3-fluoro[1,4′-bipiperidin]-1′-yl)-1-(4-fluorophenyl)-1H-pyrazolo[3,4-b]pyridine-6-carboxylic acid] | 548.45% | 172 nM | 368.7% | 591 nM
COC1CN(C2CCN(c3cc(C(=O)O)nc4c3c(C3CCC3)nn4-c3ccc(F)cc3)CC2)C1 [compound 873, 3-cyclobutyl-1-(4-fluorophenyl)-4-[4-(3-methoxyazetidin-1-yl)piperidin-1-yl]-1H-pyrazolo[3,4-b]pyridine-6-carboxylic acid] | 332.45% | 1850 nM | 139.8% | 3340 nM
O=C(O)c1cc(N2CCC(N3CCCC(C(F)(F)F)C3)CC2)c2c(C3CCC3)nn(-c3ccc(F)cc3)c2n1 (centres unmarked) [compound 874, 3-cyclobutyl-1-(4-fluorophenyl)-4-[3-(trifluoromethyl)[1,4′-bipiperidin]-1′-yl]-1H-pyrazolo[3,4-b]pyridine-6-carboxylic acid] | 608.35% | 83 nM | 330.7% | 170 nM
